Data taken from publication PMC5352051, “Identification of a novel Polo-like kinase 1 inhibitor that specifically blocks the functions of Polo-Box domain” (Oncotarget, 2016).

Assays:
[1] = target: T1, Plk1 PBD (Homo sapiens, UniProt P53350); experiment: Fluorescence polarization assay, Plk1 PBD / FITC-Poloboxtide; assay type: binding
T1 construct: (326-603 aa), Plk2 (355-685 aa), and Plk3 (335-646 aa); 6xHis (N); 6xHis (C); made in house; host or cells: E. coli Rosetta BL21(DE3)
Procedure: (§1) FP assay was performed as follow. […] We calculated the percentage of inhibition for each sample as follows: Inhibition(%)=Negative−Sample/Negative−Positive×100%
(§2) We plotted the inhibition values and determined IC50 using GraphPad Prism5.0. Together with the FITC-labeled peptides used for Plk1 PBD as mentioned above, the following peptides were used for specificity assays, FITC-GPMQTSpTPKNG-OH (Plk2 PBD), FITC-GPLATSpTPKNG-OH (Plk3 PBD).

[2] = target: T2, Plk3 PBD (Homo sapiens, UniProt Q9H4B4); experiment: Fluorescence polarization assay, Plk3 PBD / FITC-labeled phosphopeptide; assay type: binding; conditions: Plk3 PBD
T2 construct: (326-603 aa), Plk2 (355-685 aa), and Plk3 (335-646 aa); GST (N); made in house; host or cells: E. coli Rosetta BL21(DE3)
T2 sequence (Q9H4B4 335-646): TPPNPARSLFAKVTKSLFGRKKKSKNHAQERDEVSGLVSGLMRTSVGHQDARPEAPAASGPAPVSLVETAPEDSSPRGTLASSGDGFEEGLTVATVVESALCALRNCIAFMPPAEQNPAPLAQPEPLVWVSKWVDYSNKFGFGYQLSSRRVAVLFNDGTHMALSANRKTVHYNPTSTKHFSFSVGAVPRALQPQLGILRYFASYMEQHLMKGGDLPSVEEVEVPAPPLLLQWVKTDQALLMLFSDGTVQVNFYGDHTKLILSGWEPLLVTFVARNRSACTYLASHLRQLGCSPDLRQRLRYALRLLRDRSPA
Procedure: as §1, §2

[3] = target: T3, Plk1-Bub1 interaction (Homo sapiens, UniProt P53350); experiment: Co-immunoprecipitation (IP) assay in HeLa cells; assay type: cell-based; conditions: HeLa cells released from double-thymidine arrest, 5, 10, 15 μM, 10 hrs
T3 construct: endogenous in cells; host or cells: HeLa
T3 sequence (P53350 2-603 limits assumed): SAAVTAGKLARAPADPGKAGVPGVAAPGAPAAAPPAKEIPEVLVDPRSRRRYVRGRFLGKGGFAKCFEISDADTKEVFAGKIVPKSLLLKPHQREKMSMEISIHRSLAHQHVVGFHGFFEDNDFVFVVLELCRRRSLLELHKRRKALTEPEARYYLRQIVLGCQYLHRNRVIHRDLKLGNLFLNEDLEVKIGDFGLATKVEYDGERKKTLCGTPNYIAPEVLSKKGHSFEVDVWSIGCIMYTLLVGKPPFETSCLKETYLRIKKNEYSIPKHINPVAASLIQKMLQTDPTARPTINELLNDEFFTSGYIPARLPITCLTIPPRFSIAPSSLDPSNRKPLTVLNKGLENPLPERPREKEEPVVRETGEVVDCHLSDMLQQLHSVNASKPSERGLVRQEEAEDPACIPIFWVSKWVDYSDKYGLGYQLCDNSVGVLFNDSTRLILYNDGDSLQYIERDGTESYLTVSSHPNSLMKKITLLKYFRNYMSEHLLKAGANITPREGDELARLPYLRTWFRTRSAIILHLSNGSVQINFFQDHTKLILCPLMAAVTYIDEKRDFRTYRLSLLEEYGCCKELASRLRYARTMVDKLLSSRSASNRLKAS
Procedure: HeLa cells were synchronized in G1/S boundary by double-thymidine block as described, and then released into medium containing DMSO and T521 (5, 10, 15 μM) for 10 hrs. For Co-IP assay, rabbit polyclonal anti-Bub1 antibody (Cat# ab70372; Abcam) was coupled to Protein A-Agarose beads (Cat# sc-2001; Santa Cruz) at a concentration 100 μg/mL. Treated HeLa cells were lysed with RIPA buffer. After clearing by centrifugation, the lysate was incubated with the beads coupled to anti-Bub1 antibody for 2 hrs at 4°C. The beads were washed with the lysis buffer for three times. The proteins bound to the beads were dissolved in loading buffer and separated by 10% SDS-PAGE, and probed with the mouse monoclonal anti-hPlk1 antibody (Cat# P5998; Sigma; 1:3000) and rabbit polyclonal anti-Bub1 antibody (Cat# ab70372;Abcam; 1:2000), respectively.

[4] = system: HeLa cells; experiment: Cell cycle analysis by flow cytometry (DNA content); assay type: cell-based, human; conditions: synchronized HeLa, 10 μM
Procedure: HeLa cells (1.0×10^5 cells/well) were synchronized at G1/S boundary by double-thymidine block and then released into various media with indicated reagents. For cell cycle analysis, HeLa cells were harvested at different time points, washed twice with PBS, fixed in ice-cold 70% ethanol for 30 min at 4°C, and incubated with 500 μL of Propidium Iodine (Sigma; 10 μg/mL) and RNase A (Sigma; 1 mg/mL) for 30 min at 37°C in the dark prior to flow cytometry analysis (FACScan, BD Biosciences).

T1 sequence (P53350 326-603): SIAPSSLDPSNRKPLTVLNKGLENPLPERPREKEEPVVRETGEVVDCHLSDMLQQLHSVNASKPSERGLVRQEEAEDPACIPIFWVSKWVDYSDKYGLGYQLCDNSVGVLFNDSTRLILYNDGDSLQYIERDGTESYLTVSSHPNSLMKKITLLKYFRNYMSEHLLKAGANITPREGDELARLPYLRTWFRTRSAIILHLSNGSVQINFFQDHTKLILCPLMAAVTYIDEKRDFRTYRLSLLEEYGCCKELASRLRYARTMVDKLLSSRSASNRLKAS

CCS(=O)(=O)c1oc(-c2ccc(F)cc2)nc1S(=O)(=O)c1ccccc1 [T521, 5-(ethylsulfonyl)-2-(4-fluorophenyl)-4-(phenylsulfonyl) oxazole]
temperature dependence of inhibition of Plk1 PBD / FITC-Poloboxtide interaction ([1]; 1 hr incubation at indicated temperatures): more efficient at higher temperatures | IC50 ([1]; Plk1 PBD, FP assay, 1 hr preincubation at RT, read-out: Apparent IC50): 1.22 ± 0.13 µM | time dependence of inhibition of Plk1 PBD / FITC-Poloboxtide interaction ([1]; incubation for indicated times at RT): inhibition increased over time | IC50 ([2]; FP assay, 1 hr preincubation at RT, read-out: Apparent IC50): > 500 µM | inhibition of binding of PBD to FITC-labeled phosphopeptide ([2]; concentration as high as 500 μM): little inhibition | Plk1 protein level in Bub1 immunoprecipitates [3]: clear decrease | cells with 4C DNA content ([4]; 16 hrs after release): about 40% | cells remaining in G2/M phase ([4]; entire course (24 hrs)): At least 20%
